In patent US20230203095A1, “BIOLOGICAL PEPTIDE FOR TREATING LUNG DISEASES AND APPLICATION THEREOF” (SHANGHAI INSTITUTE OF PHARMACEUTICAL INDUSTRY CO., LTD., priority 2019, published 2023):
“And” between values parts separate entries of the source, which are not always exact repeats. Identical values can stand only once. One block for each compound: values may come before it. Square brackets hold non-standard residues; d marks the D form. Peptide text beside a SMILES is read from it. * marks the point of attachment. X1 = CC(=O)N[C@H]1C(*)O[C@H](CO)[C@@H](O)[C@@H]1O

How the values were obtained:
[1] = tested on: ConA-stimulated mouse splenocytes; test: Secretion of IL-4 from mouse splenocytes stimulated by ConA (ELISA); assay type: cell-based, BALB/C mice; settings: for IL-4 levels of polypeptides: ConA 5 µg/mL, 24 h
Description: (§1) Three BALB/C mice were sacrificed by cervical dislocation after anesthesia. Then mice were immersed in 75% ethanol for 5 minutes. After dissection and spleen extraction, spleen lymphocytes were prepared. […] Different concentrations of test substances were added to each well, and duplicate wells were set for each concentration, and the final concentration of ConA was 5 µg/mL. The plate was incubated in a 37° C. 5% CO2 incubator for 24 h, the drug-containing cell suspension was aspirated from each well, then centrifuged at 200 g for 15 min at 4° C. The supernatant was taken, and mouse IL-4 Elisa kit was used to detect IL- 4 content.
as §1, with “each concentration was” for “duplicate wells were”, “up as triple wells,” for “for each concentration,”, “kit (mouse IL-4 Elisa kit)” for “kit”

[2] = Plasma drug concentrations and pharmacokinetics after a single intravenous or subcutaneous injection of SIPI-G9 in SD rats; settings: for level at 3 h: 180 min; for level at 4 h: 240 min; for clearance: CL; for MRT last: MRT0-t
Description: Routes: single back subcutaneous injection and single tail vein injection;
Orbital blood was collected at different time points before and after administration. […] High concentration samples were diluted with blank plasma.
Column: SHIM-PACK GISS C18 (2.1 × 100 mm, 1.9 µm); injection volume: 20 µL; mobile phase: phase A: 0.2% acetic acid in water; phase B: methanol, gradient elution (see Table 16 for details);
The ion source is electrospray ionization source (ESI); the drying gas (N2) temperature is 550° C.; the electrospray voltage is 5500 V; the detection method is positive ion detection; the scanning method is the selective reaction monitoring (MRM) method, and the scanning time is 0.15 s.
50 µL plasma was taken and 5 µL internal standard solution (DX07 (His-Leu-Glu-Thr-Glu-Leu-His) 100 ng/mL) was added. After that, 150 µL of methanol was added to precipitate proteins, then centrifuged at 13,000 rpm for 5 min, and 160 µL supernatant was taken and dried with 40° C. N2, then reconstituted with 75 µL of 0.1% formic acid aqueous solution.
Pharmacokinetic parameters were calculated using the non-compartmental model of DAS 2.0 software. Both Cmax and Tmax are measured values; AUC, T½, CL and Vz are calculated by DAS 2.0.

[3] = SIPI-G9 1 mg/kg i.v., SD rats, individual rats, 1 mg/kg
[4] = male, SD, rat, plasma, sc, 5 mg/kg, Plasma G-9 concentration, Mean, SIPI-G9 5 mg/kg s.c., SD rats, n=3
[5] = male, SD, rat, plasma, sc, 5 mg/kg, Plasma G-9 concentration, SIPI-G9 5 mg/kg single subcutaneous injection, SD rats, individual rats
[6] = rat, in vivo, iv, 1 mg/kg, Mean
[7] = rat, in vivo, sc, 5 mg/kg, Mean

Structure (SMILES): C[C@H](O)[C@@H](NC(=O)[C@@H](Cc1ccc(O)cc1)NC(=O)[C@H](NC(=O)[C@@H](CO)NC(=O)CN)[C@H](C)O)C(=O)N[C@H](CCC(N)=O)C(=O)NCC(=O)O [SIPI-D00, GSTYTQG] (H-G[dS][dT][dY][dT][dQ]G-OH)
secretion of IL-4 by ConA-stimulated mouse spleen lymphocytes (in words) [1]: significantly inhibit
Inhibitory rate of polypeptide on IL-4 secretion ([1]; peptide concentration 1 µg/mL): 34.96%
IL-4 levels of polypeptides ([1]; peptide concentration 1 µg/mL): 14.05 ± 2.19 pg/mL
Inhibitory rate of polypeptide on IL-4 secretion ([1]; peptide concentration 3 µg/mL): 59.68%
IL-4 levels of polypeptides ([1]; peptide concentration 3 µg/mL): 8.71 ± 0.95 pg/mL
Inhibitory rate of polypeptide on IL-4 secretion ([1]; peptide concentration 10 µg/mL): 71.00%
IL-4 levels of polypeptides ([1]; peptide concentration 10 µg/mL): 6.26 ± 0.36 pg/mL
Inhibitory rate of polypeptide on IL-4 secretion ([1]; peptide concentration 30 µg/mL): 72.82%
IL-4 levels of polypeptides ([1]; peptide concentration 30 µg/mL): 5.87 ± 0.49 pg/mL

T1/2 [2, 3]: 8.50 min and 7.50 min
Vd [2, 3]: 2.23 L/kg and 1.29 L/kg
Plasma G-9 concentration ([2]; SIPI-G9 1 mg/kg single intravenous injection, SD rats, 3 min, individual rats, 1 mg/kg): 714 ng/mL and 573 ng/mL and 737 ng/mL
Plasma G-9 concentration ([2]; SIPI-G9 1 mg/kg single intravenous injection, SD rats, 6 min, individual rats, 1 mg/kg): 265 ng/mL and 231 ng/mL and 295 ng/mL
Plasma G-9 concentration ([2]; SIPI-G9 1 mg/kg single intravenous injection, SD rats, 10 min, individual rats, 1 mg/kg): 124 ng/mL and 120 ng/mL and 377 ng/mL
Plasma G-9 concentration ([2]; SIPI-G9 1 mg/kg single intravenous injection, SD rats, 20 min, individual rats, 1 mg/kg): 33.5 ng/mL and 31.6 ng/mL and 80.0 ng/mL
Plasma G-9 concentration ([2]; SIPI-G9 1 mg/kg single intravenous injection, SD rats, 40 min, individual rats, 1 mg/kg): 6.09 ng/mL and 5.68 ng/mL and 6.78 ng/mL
Plasma G-9 concentration ([2]; SIPI-G9 1 mg/kg single intravenous injection, SD rats, 60 min, individual rats, 1 mg/kg): 1.33 ng/mL and 1.21 ng/mL and 2.00 ng/mL
Plasma G-9 concentration ([2]; SIPI-G9 5 mg/kg single subcutaneous injection, SD rats, 0 min, individual rats): 0 ng/mL
Plasma G-9 concentration ([2]; SIPI-G9 5 mg/kg single subcutaneous injection, SD rats, 40 min, individual rats, 5 mg/kg): 229 ng/mL
Plasma G-9 concentration ([2]; SIPI-G9 5 mg/kg single subcutaneous injection, SD rats, 120 min, individual rats, 5 mg/kg): 28.5 ng/mL and 33.5 ng/mL and 24.5 ng/mL
AUC(0-t) ([2]; male, SD, rat, in vivo, iv, 1 mg/kg): 114 ng·h/mL
AUC(0-t) ([2]; male, SD, rat, in vivo, sc, 5 mg/kg): 490 ng·h/mL
level at 0.05 h ([2]; male, SD, rat, plasma, iv, 1 mg/kg, Plasma G-9 concentration, Mean, SIPI-G9 1 mg/kg i.v., SD rats, 3 min, n=3): 675 ng/mL
level at 0.1 h ([2]; male, SD, rat, plasma, iv, 1 mg/kg, Plasma G-9 concentration, Mean, SIPI-G9 1 mg/kg i.v., SD rats, 6 min, n=3): 264 ng/mL
level at 10 min ([2]; male, SD, rat, plasma, iv, 1 mg/kg, Plasma G-9 concentration, Mean, SIPI-G9 1 mg/kg i.v., SD rats, 10 min, n=3): 207 ng/mL
level at 20 min ([2]; male, SD, rat, plasma, iv, 1 mg/kg, Plasma G-9 concentration, Mean, SIPI-G9 1 mg/kg i.v., SD rats, 20 min, n=3): 48.4 ng/mL
level at 40 min ([2]; male, SD, rat, plasma, iv, 1 mg/kg, Plasma G-9 concentration, Mean, SIPI-G9 1 mg/kg i.v., SD rats, 40 min, n=3): 6.18 ng/mL
level at 1 h ([2]; male, SD, rat, plasma, iv, 1 mg/kg, Plasma G-9 concentration, Mean, SIPI-G9 1 mg/kg i.v., SD rats, 60 min, n=3): 1.51 ng/mL
level at 0.05 h ([2]; male, SD, rat, plasma, sc, 5 mg/kg, Plasma G-9 concentration, Mean, SIPI-G9 5 mg/kg s.c., SD rats, 3 min, n=3): 699 ng/mL
level at 0.1 h ([2]; male, SD, rat, plasma, sc, 5 mg/kg, Plasma G-9 concentration, Mean, SIPI-G9 5 mg/kg s.c., SD rats, 6 min, n=3): 1020 ng/mL
level at 10 min ([2]; male, SD, rat, plasma, sc, 5 mg/kg, Plasma G-9 concentration, Mean, SIPI-G9 5 mg/kg s.c., SD rats, 10 min, n=3): 796 ng/mL
level at 20 min ([2]; male, SD, rat, plasma, sc, 5 mg/kg, Plasma G-9 concentration, Mean, SIPI-G9 5 mg/kg s.c., SD rats, 20 min, n=3): 408 ng/mL
level at 40 min ([2]; male, SD, rat, plasma, sc, 5 mg/kg, Plasma G-9 concentration, Mean, SIPI-G9 5 mg/kg s.c., SD rats, 40 min, n=3): 228 ng/mL
level at 1 h ([2]; male, SD, rat, plasma, sc, 5 mg/kg, Plasma G-9 concentration, Mean, SIPI-G9 5 mg/kg s.c., SD rats, 60 min, n=3): 131 ng/mL
level at 2 h ([2]; male, SD, rat, plasma, sc, 5 mg/kg, Plasma G-9 concentration, Mean, SIPI-G9 5 mg/kg s.c., SD rats, 120 min, n=3): 28.8 ng/mL
level at 3 h [2, 4]: 6.01 ng/mL
level at 4 h [2, 4]: 0.708 ng/mL
level at 0.05 h ([2]; male, SD, rat, plasma, sc, 5 mg/kg, Plasma G-9 concentration, SIPI-G9 5 mg/kg single subcutaneous injection, SD rats, 3 min, individual rats): 758 ng/mL
level at 0.1 h ([2]; male, SD, rat, plasma, sc, 5 mg/kg, Plasma G-9 concentration, SIPI-G9 5 mg/kg single subcutaneous injection, SD rats, 6 min, individual rats): 904 ng/mL
level at 10 min ([2]; male, SD, rat, plasma, sc, 5 mg/kg, Plasma G-9 concentration, SIPI-G9 5 mg/kg single subcutaneous injection, SD rats, 10 min, individual rats): 633 ng/mL
level at 20 min ([2]; male, SD, rat, plasma, sc, 5 mg/kg, Plasma G-9 concentration, SIPI-G9 5 mg/kg single subcutaneous injection, SD rats, 20 min, individual rats): 324 ng/mL
level at 40 min ([2]; male, SD, rat, plasma, sc, 5 mg/kg, Plasma G-9 concentration, SIPI-G9 5 mg/kg single subcutaneous injection, SD rats, 40 min, individual rats): 230 ng/mL
level at 1 h ([2]; male, SD, rat, plasma, sc, 5 mg/kg, Plasma G-9 concentration, SIPI-G9 5 mg/kg single subcutaneous injection, SD rats, 60 min, individual rats): 118 ng/mL
level at 3 h [2, 5]: 6.6 ng/mL
level at 4 h [2, 5]: 0.807 ng/mL
Fa (absolute bioavailability) ([2]; rat, in vivo): 96.6%
bioavailability ([2]; rat, in vivo, Fa (absolute bioavailability)): 79.2%
clearance ([2]; rat, in vivo, iv, 1 mg/kg): 151 mL/min/kg
clearance [2, 6]: 151 mL/min/kg
Cmax ([2]; rat, in vivo, iv, 1 mg/kg): 714 ng/mL
Cmax [2, 6]: 675 ng/mL
MRT last ([2]; rat, in vivo, iv, 1 mg/kg): 5.49 min
MRT last [2, 6]: 6.63 min
half-life ([2]; rat, in vivo, iv, 1 mg/kg, T1/2, Mean, SIPI-G9 1 mg/kg i.v., SD rats, n=3): 8.2 min
half-life ([2]; rat, in vivo, iv, 1 mg/kg, T1/2, SIPI-G9 1 mg/kg i.v., SD rats, individual rats): 8.59 min
Tmax ([2]; rat, in vivo, iv, 1 mg/kg): 3 min
Tmax [2, 6]: 3 min
Vd ([2]; rat, in vivo, iv, 1 mg/kg, Vd, Mean, SIPI-G9 1 mg/kg i.v., SD rats, n=3): 1.8 L/kg
Vd ([2]; rat, in vivo, iv, 1 mg/kg, Vd, SIPI-G9 1 mg/kg i.v., SD rats, individual rats): 1.87 L/kg
Cmax ([2]; rat, in vivo, sc, 5 mg/kg): 904 ng/mL
Cmax [2, 7]: 1020 ng/mL
MRT last ([2]; rat, in vivo, sc, 5 mg/kg): 34.3 min
MRT last [2, 7]: 33.9 min
Tmax ([2]; rat, in vivo, sc, 5 mg/kg): 6 min
Tmax [2, 7]: 7 min
Structure (SMILES): CC(=O)N[C@H]1C(OC[C@H](NC(=O)[C@@H](NC(=O)[C@H](Cc2ccc(O)cc2)NC(=O)[C@@H](NC(=O)[C@H](CCC(N)=O)NC(=O)CN)[C@@H](C)OC2O[C@H](CO)[C@@H](O)[C@H](O)[C@H]2NC(C)=O)[C@@H](C)O)C(=O)NCC(=O)O)O[C@H](CO)[C@@H](O)[C@@H]1O (some centres unmarked) [SIPI-G9, GQT(Glc)YTS(Glc)G] (H-GQT(X1)YTS(X1)G-OH)
